Patent publication US20240018124A1, “MODULATORS OF FPR1 AND METHODS OF USING THE SAME” (BIOFRONT LTD, priority 2021, published 2024)

Assays:
[1] = molecular target: T1, FPR1 (Homo sapiens (Human), UniProt P21462); assay: Reactive oxygen species (ROS) assay in human neutrophils stimulated with fMLP; type: cell-based; settings: human neutrophils from whole blood; fMLP (500 nM); DCFH-DA fluorescence; read-out: Anti-ROS IC50
Experimental: Reactive Oxygen Species (ROS) Assay
Human whole blood was collected, and ACK lysis buffer (ThermoFisher, A1049201) was added at 3 times the volume of the blood sample to lyse the red blood cells. The sample was incubated on ice for 15 minutes, and gently mixed twice during the incubation. 10 mL DPBS was then added, and the sample was centrifuged for 8 minutes. After removing the supernatant, remaining cells were resuspended in RPMI1640 medium containing 3% FBS and centrifuged again for 10 minutes. After removing the supernatant, cells were again resuspended in RPMI1640 medium containing 3% FBS. Neutrophil cell count was determined using FACS analysis by APC-labeled CD11b antibody (Biolegend, 101211) and FITC-labeled CD66b antibody (Biolegend, 305104). Neutrophils were then plated into 96-well plates (300,000/well). Plates were centrifuged and supernatant was removed. Cells were resuspended in 80 μL of compound solution (prepared in RPMI1640 medium containing 3% FBS), then incubated at room temperature for 15 minutes. 20 μL solution containing DCFH-DA (at the manufacturer's recommended concentration, Yeasen Biotechnology, 50101ES01) and fMLP (500 nM) was then added. Cells were incubated at 37° C. in 5% CO2 for 20 minutes away from light. After incubation, cells were placed on ice for 5 minutes, washed twice with 200 μL ice-cold DPBS, then resuspended in ice-cold DPBS at 100 µL/well. Fluorescence from each sample was measured at 485 nm excitation and 535 nm emission.
(§1) The effects of the compounds of the present disclosure on regulating the FPR1-mediated cell signaling were measured by monitoring the cellular cAMP level change and anti-reactive oxygen species formation in human neutrophils in the presence of an FPR1 agonist, respectively, as illustrated by the examples in Table 1.

[2] = molecular target: T1, FPR1; assay: Cyclic adenosine monophosphate (cAMP) assay, CHO-K1 cells stably overexpressing hFPR1; type: cell-based; settings: 2.5 μM Forskolin and 0.25 nM WKYMVm (FPR1 agonist)
Experimental: Cyclic Adenosine Monophosphate (cAMP) Assay
CHO-K1 cells stably overexpressing hFPR1 were plated into 384-well cell culture plates (2,000/well/5 μL) in 1× Stimulation Buffer (LANCE Ultra cAMP Kit, Perkin Elmer, TRF0263). 1 μL compound solution (prepared in ddH2O containing 0.2% DMSO) was added to each well. Plates were centrifuged briefly, and cells were incubated at 37° C. in 5% CO2 for 10 minutes. 4 μL solution containing 2.5 μM Forskolin and 0.25 nM WKYMVm (an FPR1 agonist, GLPBIO, GC15140) was then added to each well. 5 μL of Eu-cAMP solution (diluted to manufacturer's recommended working concentration in Detection Buffer, LANCE Ultra cAMP Kit) and 5 μL of ULight-anti-cAMP solution (diluted in Detection Buffer, LANCE Ultra cAMP Kit) were added to each well. Plates were centrifuged briefly, and cells were incubated at room temperature for 1 hour. Fluorescence emission at 665 nm and 620 nm from the samples was measured by a Perkin Elmer Envision instrument.
as §1

T1 sequence (P21462 whole entry): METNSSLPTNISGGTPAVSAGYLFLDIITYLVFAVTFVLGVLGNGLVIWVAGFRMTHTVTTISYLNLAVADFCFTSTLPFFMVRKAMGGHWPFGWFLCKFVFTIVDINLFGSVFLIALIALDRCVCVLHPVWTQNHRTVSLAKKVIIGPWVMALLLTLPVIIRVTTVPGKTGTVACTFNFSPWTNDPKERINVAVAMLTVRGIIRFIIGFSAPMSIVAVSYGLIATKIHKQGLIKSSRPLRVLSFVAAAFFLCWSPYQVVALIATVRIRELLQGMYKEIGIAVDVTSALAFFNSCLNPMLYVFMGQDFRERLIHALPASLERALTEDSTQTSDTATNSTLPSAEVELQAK

Compound | IC50 [1] | IC50 [2]
C[C@H](NC(=O)c1c(NS(=O)(=O)c2ccc(C#N)cc2)c(-c2ccc(F)cc2)nn1C)C(C)(C)C [Compound 1, (S)-4-((4-cyanophenyl)sulfonamido)-N-(3,3-dimethylbutan-2-yl)-3-(4-fluorophenyl)-1-methyl-1H-pyrazole-5-carboxamide] | 0.1 to 1 µM | 0.1 to 1 µM
CC[C@H](C)NC(=O)c1c(NS(=O)(=O)c2ccccc2)c(-c2ccc(F)cc2)nn1C [Compound 3, (S)—N-(sec-butyl)-3-(4-fluorophenyl)-1-methyl-4-(phenylsulfonamido)-1H-pyrazole-5-carboxamide] | – | > 25 µM
C[C@H](NC(=O)c1c(NS(=O)(=O)c2ccc(Cl)cc2)c(-c2ccncc2)nn1C)C(C)(C)C [Compound 5, (S)-4-((4-chlorophenyl)sulfonamido)-N-(3,3-dimethylbutan-2-yl)-1-methyl-3-(pyridin-4-yl)-1H-pyrazole-5-carboxamide] | – | > 25 µM
CO[C@H]1CC[C@@H](c2nn(C)c(C(=O)N[C@@H](C)C(C)(C)C)c2NS(=O)(=O)c2ccc(C)cc2)CC1 [Compound 6, N—((S)-3,3-dimethylbutan-2-yl)-3-((1s,4R)-4-methoxycyclohexyl)-1-methyl-4-((4-methylphenyl)sulfonamido)-1H-pyrazole-5-carboxamide] | < 0.1 µM | 0.1 to 1 µM
C[C@H](NC(=O)c1c(NS(=O)(=O)c2ccc(Cl)cc2)c(C2CCOCC2)nn1C)C(C)(C)C [Compound 9, (S)-4-((4-chlorophenyl)sulfonamido)-N-(3,3-dimethylbutan-2-yl)-1-methyl-3-(tetrahydro-2H-pyran-4-yl)-1H-pyrazole-5-carboxamide] | 0.1 to 1 µM | 0.1 to 1 µM
C[C@H](NC(=O)c1c(NS(=O)(=O)c2ccc(Cl)cc2)c(C2CCOCC2)nn1C1CC1)C(C)(C)C [Compound 10, (S)-4-((4-chlorophenyl)sulfonamido)-1-cyclopropyl-N-(3,3-dimethylbutan-2-yl)-3-(tetrahydro-2H-pyran-4-yl)-1H-pyrazole-5-carboxamide] | – | > 25 µM
C[C@H](NC(=O)c1noc(C2CCOCC2)c1NS(=O)(=O)c1ccc(Cl)cc1)C(C)(C)C [Compound 11, (S)-4-((4-chlorophenyl)sulfonamido)-N-(3,3-dimethylbutan-2-yl)-5-(tetrahydro-2H-pyran-4-yl)isoxazole-3-carboxamide] | – | > 25 µM
COCc1cccc(-c2nn(C)c(C(=O)N[C@@H](C)C(C)(C)C)c2NS(=O)(=O)c2ccc(C)cc2)c1 [Compound 15, (S)—N-(3,3-dimethylbutan-2-yl)-3-(3-(methoxymethyl)phenyl)-1-methyl-4-((4-methylphenyl)sulfonamido)-1H-pyrazole-5-carboxamide] | 0.1 to 1 µM | > 25 µM
Cc1ccc(S(=O)(=O)Nc2c(C3=CCOCC3)nn(C)c2C(=O)N[C@@H](C)C(C)(C)C)cc1 [Compound 16, (S)-3-(3,6-dihydro-2H-pyran-4-yl)-N-(3,3-dimethylbutan-2-yl)-1-methyl-4-((4-methylphenyl)sulfonamido)-1H-pyrazole-5-carboxamide] | 0.1 to 1 µM | 1 to 25 µM
Cc1ccc(S(=O)(=O)Nc2c(C3=CCC(C)(C)CC3)nn(C)c2C(=O)N[C@@H](C)C(C)(C)C)cc1 [Compound 18, (S)—N-(3,3-dimethylbutan-2-yl)-3-(4,4-dimethylcyclohex-1-en-1-yl)-1-methyl-4-((4-methylphenyl)sulfonamido)-1H-pyrazole-5-carboxamide] | – | > 25 µM
CO[C@H]1CC[C@@H](c2nn(C)c(C(=O)N[C@@H](C)C(C)(C)C)c2NS(=O)(=O)c2ccc(Cl)cc2)CC1 [Compound 19, 4-((4-chlorophenyl)sulfonamido)-N—((S)-3,3-dimethylbutan-2-yl)-3-((1S,4R)-4-methoxycyclohexyl)-1-methyl-1H-pyrazole-5-carboxamide] | < 0.1 µM | 0.1 to 1 µM
CO[C@H]1CC[C@@H](c2nn(C)c(C(=O)N[C@@H](C)C(C)(C)C)c2NS(=O)(=O)c2ccc(C3CC3)cc2)CC1 [Compound 20, 4-((4-cyclopropylphenyl)sulfonamido)-N—((S)-3,3-dimethylbutan-2-yl)-3-((1S,4R)-4-methoxycyclohexyl)-1-methyl-1H-pyrazole-5-carboxamide] | < 0.1 µM | 0.1 to 1 µM
CO[C@H]1CC[C@@H](c2nn(C)c(C(=O)N[C@@H](C)C(C)(C)C)c2NS(=O)(=O)c2ccc(C#N)cc2)CC1 [Compound 21, 4-((4-cyanophenyl)sulfonamido)-N—((S)-3,3-dimethylbutan-2-yl)-3-((1S,4R)-4-methoxycyclohexyl)-1-methyl-1H-pyrazole-5-carboxamide] | < 0.1 µM | < 0.1 µM
COC1CC=C(c2nn(C)c(C(=O)N[C@@H](C)C(C)(C)C)c2NS(=O)(=O)c2ccc(Cl)cc2)CC1 (stereo partly drawn) [Compound 22, 4-((4-chlorophenyl)sulfonamido)-N—((S)-3,3-dimethylbutan-2-yl)-3-(4-methoxycyclohex-1-en-1-yl)-1-methyl-1H-pyrazole-5-carboxamide] | < 0.1 µM | 0.1 to 1 µM
C[C@H](NC(=O)c1c(NS(=O)(=O)c2ccc(Cl)cc2)c(C2CCC3(CC2)OCCO3)nn1C)C(C)(C)C [Compound 23, (S)-4-((4-chlorophenyl)sulfonamido)-N-(3,3-dimethylbutan-2-yl)-1-methyl-3-(1,4-dioxaspiro[4.5]decan-8-yl)-1H-pyrazole-5-carboxamide] | 1 to 25 µM | 1 to 25 µM
Cc1ccc(S(=O)(=O)Nc2c(C3=CCC(F)(F)CC3)nn(C)c2C(=O)N[C@@H](C)C(C)(C)C)cc1 [Compound 29, (S)-3-(4,4-difluorocyclohex-1-en-1-yl)-N-(3,3-dimethylbutan-2-yl)-1-methyl-4-((4-methylphenyl)sulfonamido)-1H-pyrazole-5-carboxamide] | – | > 25 µM
Cc1ccc(S(=O)(=O)Nc2c(C3=CCOCC3)nn(C)c2C(=O)N[C@@H](C)C(C)(C)C)cc1 [Compound 30, (S)-3-(3,6-dihydro-2H-pyran-4-yl)-N-(3,3-dimethylbutan-2-yl)-1-methyl-4-((4-methylphenyl)sulfonamido)-1H-pyrazole-5-carboxamide] | – | 1 to 25 µM
Cc1ccc(S(=O)(=O)Nc2c(C3(O)CCOCC3)nn(C)c2C(=O)N[C@@H](C)C(C)(C)C)cc1 [Compound 31, (S)—N-(3,3-dimethylbutan-2-yl)-3-(4-hydroxytetrahydro-2H-pyran-4-yl)-1-methyl-4-((4-methylphenyl)sulfonamido)-1H-pyrazole-5-carboxamide] | – | > 25 µM
Cc1ccc(S(=O)(=O)Nc2c(C3=CCC(C#N)CC3)nn(C)c2C(=O)N[C@@H](C)C(C)(C)C)cc1 (stereo partly drawn) [Compound 32, 3-(4-cyanocyclohex-1-en-1-yl)-N—((S)-3,3-dimethylbutan-2-yl)-1-methyl-4-((4-methylphenyl)sulfonamido)-1H-pyrazole-5-carboxamide] | – | 1 to 25 µM
Cc1ccc(S(=O)(=O)Nc2c(-c3cccc(OC(F)(F)F)c3)nn(C)c2C(=O)N[C@@H](C)C(C)(C)C)cc1 [Compound 34, (S)—N-(3,3-dimethylbutan-2-yl)-1-methyl-4-((4-methylphenyl)sulfonamido)-3-(3-(trifluoromethoxy)phenyl)-1H-pyrazole-5-carboxamide] | – | > 25 µM
Cc1ccc(S(=O)(=O)Nc2c(-c3cccc(OCC(C)C)c3)nn(C)c2C(=O)N[C@@H](C)C(C)(C)C)cc1 [Compound 35, (S)—N-(3,3-dimethylbutan-2-yl)-3-(3-isobutoxyphenyl)-1-methyl-4-((4-methylphenyl)sulfonamido)-1H-pyrazole-5-carboxamide] | – | > 25 µM
C[C@H](NC(=O)c1c(NS(=O)(=O)c2ccc(Cl)cc2)c(C2=CCC(F)(F)CC2)nn1C)C(C)(C)C [Compound 36, (S)-4-((4-chlorophenyl)sulfonamido)-3-(4,4-difluorocyclohex-1-en-1-yl)-N-(3,3-dimethylbutan-2-yl)-1-methyl-1H-pyrazole-5-carboxamide] | – | > 25 µM
COCc1cncc(-c2nn(C)c(C(=O)N[C@@H](C)C(C)(C)C)c2NS(=O)(=O)c2ccc(Cl)cc2)c1 [Compound 40, (S)-4-((4-chlorophenyl)sulfonamido)-N-(3,3-dimethylbutan-2-yl)-3-(5-(methoxymethyl)pyridin-3-yl)-1-methyl-1H-pyrazole-5-carboxamide] | – | 1 to 25 µM
